From ChEMBL document CHEMBL5528011, “Recent progress and applications of small molecule inhibitors of Keap1-Nrf2 axis for neurodegenerative diseases” (Eur J Med Chem, 2024) come the findings set out here.

The nature of experiment [1]: Induction of NQO1 expression in mouse Hepa1c1c7 cells. Type of experiment: functional.
Experiment [2] concerns the target T1, Keap1/Nrf2 (Homo sapiens, UniProt Q14145+Q16236). The experiment in a line: Binding affinity to human Keap1-Nrf2 protein-protein interaction assessed as dissociation constant. Type of experiment: protein assay.
In experiment [3] the target is T1, Keap1/Nrf2. The experiment in a line: Binding affinity to human Keap1-Nrf2 protein-protein interaction assessed as inhibition constant incubated for 60 mins by fluorescent polarization assay.
In experiment [4] the target is T2, Nuclear factor erythroid 2-related factor 2 (Mus musculus) (UniProt Q60795).
T2 sequence (whole entry): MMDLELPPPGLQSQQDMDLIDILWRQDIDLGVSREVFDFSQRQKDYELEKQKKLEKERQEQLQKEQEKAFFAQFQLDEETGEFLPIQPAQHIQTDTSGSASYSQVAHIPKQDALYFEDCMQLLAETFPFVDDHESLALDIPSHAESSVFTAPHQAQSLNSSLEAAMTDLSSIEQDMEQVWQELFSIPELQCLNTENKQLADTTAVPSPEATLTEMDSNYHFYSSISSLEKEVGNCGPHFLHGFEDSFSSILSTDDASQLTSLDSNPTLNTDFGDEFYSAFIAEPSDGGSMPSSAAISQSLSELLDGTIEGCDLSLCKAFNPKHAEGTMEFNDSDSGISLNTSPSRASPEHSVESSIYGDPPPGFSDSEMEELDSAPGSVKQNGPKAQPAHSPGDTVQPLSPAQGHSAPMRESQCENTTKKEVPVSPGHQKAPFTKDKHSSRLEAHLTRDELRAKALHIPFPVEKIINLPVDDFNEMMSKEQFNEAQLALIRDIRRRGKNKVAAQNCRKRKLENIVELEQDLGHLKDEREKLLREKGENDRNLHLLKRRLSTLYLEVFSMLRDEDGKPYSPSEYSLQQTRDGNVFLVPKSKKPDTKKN
The experiment in a line: Activation of Nrf2 pathway in mouse BV-2 cells assessed as fold increase in HO-1 level at 5 uM measured after 3 hrs by Western blot analysis. Type of experiment: cell-based. The note with it: filed as activator.

Experiment [5] concerns the target T2, Nuclear factor erythroid 2-related factor 2 (Mus musculus). Briefly: Activation of Nrf2 in mouse BV-2 cells assessed as increase in GCLC mRNA expression by measuring fold change at 5 uM measured for 3 hrs by qRT-PCR analysis. Type of experiment: cell-based. The following applies: filed as activator. Background: In qPCR the cycle at which signal appears reflects the starting amount.

For experiment [6] the target is unchanged. Briefly: Activation of Nrf2 in mouse BV-2 cells assessed as increase in GCLM mRNA expression by measuring fold change at 5 uM incubated for 3 hrs by qRT-PCR analysis. Type of experiment: cell-based. The following applies: filed as activator.
Experiment [7] relates to BV-2. Briefly: Antiinflammatory activity against mouse BV-2 cells assessed as reduction in LPS-induced NO production at 20 uM incubated for 24 hrs by Griess reagent based assay relative to control. Type of experiment: functional. Set-up: scale not given: the % may be the effect or the level left. (Griess reagent forms a coloured azo dye with nitrite.)
Experiment [8] has as its target Amyloid-beta precursor protein (Homo sapiens, UniProt P05067). The experiment in a line: Inhibition of amyloid beta 42 (unknown origin) self aggregation by Thioflavin T-based fluorometric assay.
For experiment [9], the system named is HepG2-ARE-C8. Briefly: Activation of Nrf2-ARE pathway in human HepG2-ARE-C8 cells measured for 24 hrs by ARE-luciferase assay. Type of experiment: cell-based. The following applies: filed as activator.
Experiment [10] addresses Keap1/Nrf2 (Homo sapiens, UniProt Q14145). The experiment in a line: Inhibition of human Keap1 KELCH domain (321 to 609 residues) expressed in Escherichia coli BL21 DE3 pLysS cells/Nrf2 (unknown origin) protein-protein interaction preincubated with Keap1 for 1 hr followed by Nrf2 addition and measured after 1 hr by fluorescence polarization assay. A general note: In fluorescence polarisation assays a small probe gives low polarisation when free and higher when bound to something large.

T1 sequence (Q16236 whole entry): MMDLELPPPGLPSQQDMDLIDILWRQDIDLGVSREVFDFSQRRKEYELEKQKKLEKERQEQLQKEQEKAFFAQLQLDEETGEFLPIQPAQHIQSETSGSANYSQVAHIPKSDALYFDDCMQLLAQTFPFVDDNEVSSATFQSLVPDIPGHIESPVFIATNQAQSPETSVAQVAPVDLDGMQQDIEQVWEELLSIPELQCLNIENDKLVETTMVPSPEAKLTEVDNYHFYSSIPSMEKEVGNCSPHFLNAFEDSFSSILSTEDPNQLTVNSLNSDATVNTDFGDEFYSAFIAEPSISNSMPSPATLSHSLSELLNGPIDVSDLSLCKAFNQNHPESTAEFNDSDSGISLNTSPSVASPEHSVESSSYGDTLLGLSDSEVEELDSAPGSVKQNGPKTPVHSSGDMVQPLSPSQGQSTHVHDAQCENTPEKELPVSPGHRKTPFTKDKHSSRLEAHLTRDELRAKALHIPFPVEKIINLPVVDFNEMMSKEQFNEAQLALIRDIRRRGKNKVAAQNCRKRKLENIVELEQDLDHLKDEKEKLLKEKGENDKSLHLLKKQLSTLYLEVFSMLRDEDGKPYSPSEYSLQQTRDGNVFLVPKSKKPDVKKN
T1 sequence (Q14145 whole entry): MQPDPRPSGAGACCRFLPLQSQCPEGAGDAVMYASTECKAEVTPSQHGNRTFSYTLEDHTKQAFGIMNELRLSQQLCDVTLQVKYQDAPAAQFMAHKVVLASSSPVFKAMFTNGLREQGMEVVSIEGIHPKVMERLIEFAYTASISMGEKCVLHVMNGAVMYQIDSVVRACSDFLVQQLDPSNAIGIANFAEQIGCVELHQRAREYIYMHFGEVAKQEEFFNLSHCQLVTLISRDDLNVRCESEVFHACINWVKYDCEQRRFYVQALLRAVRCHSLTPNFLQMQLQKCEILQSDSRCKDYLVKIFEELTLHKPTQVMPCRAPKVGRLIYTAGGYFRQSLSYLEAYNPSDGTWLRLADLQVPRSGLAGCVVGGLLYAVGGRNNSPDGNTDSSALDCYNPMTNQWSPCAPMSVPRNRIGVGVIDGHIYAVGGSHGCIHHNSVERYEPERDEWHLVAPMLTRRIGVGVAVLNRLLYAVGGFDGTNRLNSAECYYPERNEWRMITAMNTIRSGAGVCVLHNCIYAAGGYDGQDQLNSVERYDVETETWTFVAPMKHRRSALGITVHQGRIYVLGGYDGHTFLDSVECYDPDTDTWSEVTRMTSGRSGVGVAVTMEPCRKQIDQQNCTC
Amyloid-beta precursor protein, sequence (P05067 whole entry): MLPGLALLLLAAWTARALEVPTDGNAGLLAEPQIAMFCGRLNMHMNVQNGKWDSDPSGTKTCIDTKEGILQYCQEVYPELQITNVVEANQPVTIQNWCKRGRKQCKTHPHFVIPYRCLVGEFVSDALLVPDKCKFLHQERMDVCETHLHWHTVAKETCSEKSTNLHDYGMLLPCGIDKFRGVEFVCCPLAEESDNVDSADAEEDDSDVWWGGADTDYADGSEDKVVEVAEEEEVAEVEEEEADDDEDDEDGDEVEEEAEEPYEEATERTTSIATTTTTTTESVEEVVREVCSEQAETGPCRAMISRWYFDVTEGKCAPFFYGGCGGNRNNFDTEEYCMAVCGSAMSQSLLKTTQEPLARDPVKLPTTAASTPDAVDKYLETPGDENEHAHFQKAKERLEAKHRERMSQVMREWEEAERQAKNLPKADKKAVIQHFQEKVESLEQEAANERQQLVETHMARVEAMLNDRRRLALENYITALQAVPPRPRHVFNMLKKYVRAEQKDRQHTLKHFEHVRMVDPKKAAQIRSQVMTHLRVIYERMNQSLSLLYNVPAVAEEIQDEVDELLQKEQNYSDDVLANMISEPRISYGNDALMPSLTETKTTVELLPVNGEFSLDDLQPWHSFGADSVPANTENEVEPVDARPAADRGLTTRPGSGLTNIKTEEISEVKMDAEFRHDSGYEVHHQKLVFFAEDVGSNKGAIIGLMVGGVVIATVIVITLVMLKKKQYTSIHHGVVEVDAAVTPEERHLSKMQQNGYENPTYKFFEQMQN
Keap1/Nrf2 (Homo sapiens, UniProt Q14145), sequence (Q16236 whole entry, the tested form may be a part): as the sequence (Q16236 whole entry) above
Keap1/Nrf2 (Homo sapiens, UniProt Q14145), sequence (Q14145 whole entry, the tested form may be a part): as the sequence (Q14145 whole entry) above

As to `CC1(C)CC[C@]2(C#N)CC[C@]3(C)C(C(=O)C=C4[C@@]5(C)C=C(C#N)C(=O)C(C)(C)[C@@H]5CC[C@]43C)[C@@H]2C1` (some centres undefined), the CD in experiment [1] came to 0.00027 µM.

For the compound `Nc1ccc(Sc2nnc(COc3ccccc3)n2-c2ccccc2)nc1`, in [1], the CD was 2.5 µM.

Turning to `CNC(=O)[C@]12CCC(C)(C)C[C@H]1C1C(=O)C=C3[C@@]4(C)C=C(C#N)C(=O)C(C)(C)[C@@H]4CC[C@@]3(C)[C@]1(C)CC2` (some centres undefined), the CD in [1] is 0.001 µM.

For the compound `O=[N+]([O-])c1ccc(Sc2nnc(COc3ccccc3)[nH]2)nc1`, in experiment [1], the CD worked out at 7.5 µM.

In experiment [1], `CC1(C)CC[C@]2(C(=O)O)CC[C@]3(C)C(C(=O)C=C4[C@@]5(C)C=CC(=O)C(C)(C)[C@@H]5CC[C@]43C)[C@@H]2C1` (some centres undefined) came in with a CD of 0.28 µM.

Usually Kd stands for the concentration at which binding is half-saturated. Regarding `[H]/N=C(\N/C(=N/[H])NCCCCCCNC(=N)NC(=N)Nc1ccc(Cl)cc1)Nc1ccc(Cl)cc1` [CHLORHEXIDINE], the Kd in experiment [2] is less than 30 µM.

A word on the Ki: it is a measure of affinity in units of concentration, obtained from inhibition or displacement. With `O=C(NCC1CCCO1)C1CCC([N+](=O)[O-])S1` (centres undefined), the Ki in experiment [3] worked out at 6.15 µM.

For `CC(=O)O[C@H]1CC(C)(C)C(=C=C/C(C)=C/C=C/C(C)=C/C=C/C=C(C)/C=C/C=C(\C)C(=O)C[C@@]23O[C@]2(C)C[C@@H](O)CC3(C)C)[C@](C)(O)C1`, the values for the fold change (FC) in experiment [4], in [5] and in experiment [6] were 2.02, 2.39 and 2.39, respectively.

In turn, `O=[N+]([O-])c1ccc(Sc2nnc(Cc3ccccc3)n2-c2ccccc2)nc1` gave a CD in experiment [1] of 0.3 µM.

With `COc1ccccc1S(=O)(=O)/C=C/c1ccc(Cl)cc1`, the Activity in [7] is listed as 31.5%.

In the case of `COc1ccccc1S(=O)(=O)/C=C/c1ccccc1F`, the Activity in experiment [7] was 24%.

With `O=[N+]([O-])c1ccc(Sc2nnc(COc3ccccc3)n2-c2ccccc2)cc1`, in [1], the CD came out at 10 µM.

For `CC1(C)CC[C@]2(C(=O)O)CC[C@]3(C)C(C(=O)C=C4[C@@]5(C)C=C(C(=O)O)C(=O)C(C)(C)[C@@H]5CC[C@]43C)[C@@H]2C1` (some centres undefined), the CD in experiment [1] amounted to 0.22 µM.

The term IC50 denotes the midpoint of a concentration-inhibition curve. In experiment [8], `C=CCSC(=O)/C=C/c1ccc(O)c(O)c1` yielded an IC50 of 12.5 µM.

In experiment [1], `COC(=O)[C@]12CCC(C)(C)C[C@H]1C1C(=O)C=C3[C@@]4(C)C=C(C(=O)O)C(=O)C(C)(C)[C@@H]4CC[C@@]3(C)[C@]1(C)CC2` (some centres undefined) returned a CD of 0.018 µM.

`O=[N+]([O-])c1ccc(Sc2nnc(COc3ccccc3)n2-c2ccccc2)nc1` returned a CD in [1] of 2.5 µM.

Consider `COc1ccccc1S(=O)(=O)/C=C/c1cccc(Cl)c1`, for which the Activity in experiment [7] is 32.1%.

Turning to `COc1ccc(S(=O)(=O)Nc2ccc(N(CC(N)=O)S(=O)(=O)c3ccc(OC)cc3)c3ccccc23)cc1`, the Activity in experiment [9] is 1.8 nM. The compound further had an IC50 in [10] of 0.0257 µM.

On to `COc1ccccc1S(=O)(=O)/C=C/c1ccccc1C(F)(F)F`, for which, in experiment [7], the Activity is 29.9%.

For `COc1ccccc1S(=O)(=O)/C=C/c1ccccc1Cl`, the Activity in [7] is on record as 15.2%.

In [1], `COC(=O)[C@]12CCC(C)(C)C[C@H]1C1C(=O)C=C3[C@@]4(C)C=C(C#N)C(=O)C(C)(C)[C@@H]4CC[C@@]3(C)[C@]1(C)CC2` (some centres undefined) returned a CD of 0.001 µM.
